Results reported in US20260285869A1, “COMPOUNDS, COMPOSITIONS AND METHODS THEREOF” (HEPAITECH (BEIJING) BIOPHARMA TECHNOLOGY CO., LTD., priority 2023, published 2026).

Target: T1, human MRGPRX4 (Homo sapiens, UniProt Q96LA9)
T1 construct: expressed in transfected cells
Assay: MRGPRX4 antagonist calcium assay (FLIPR, Fluo-8) in HEK293T cells stably expressing human MRGPRX4
Assay type: cell-based
Conditions: antagonist mode against 0.2 μM deoxycholic acid-3-phosphoric acid; for inhibition at 0.5 µM / inhibition at 2 µM: HEK-293T, HEK293T cells expressing human MRGPRX4; for inhibition at 0.5 µM: compound at 500 nM; for IC50: top conc. 30 μM, ten 3-fold serial dilutions, class symbols; for inhibition at 2 µM: compound at 2 μM
Procedure: HEK293T cells stably expressing human MRGPRX4 were cultured in DMEM medium supplements with 10% FBS, 100 U/mL penicillin-streptomycin, 20 mM HEPES and 1 μg/mL puromycin at 37° C. with 5% (v/v) CO2. One day before test, the cells were detached using TrypLE™ Express and counted using cell counter. In a 384-well plate cells were seeded at a density of 20,000 cells/well in 20 μL/well planting medium (DMEM medium supplements with 5% FBS, 100 U/mL penicillin-streptomycin and 20 mM HEPES), and incubated overnight at 37° C. with 5% (v/v) CO2. On the day of experiments, the dye solution, prepared following the manufacture's instruction of the Screen Quest™ Fluo-8 No Wash Calcium Assay Kit, was added to each well (20 μL/well) of the cell plate. The cell plate was incubated at 25° C. for 1 hour. Test compounds in different doses were transferred to the cell plate by FLIPR and the plate was kept in the dark at 25° C. for 30 minutes. The agonist solution, 0.2 μM of deoxycholic acid-3-phosphoric acid in assay buffer, was added to each well of the plate. The plate was read for 160 sec with 1 sec interval to obtain data of antagonist mode in FLIPR. […] Those skilled in the art appreciate that IC50 of various compounds can be assessed in accordance with the present disclosure.

T1 sequence (Q96LA9 whole entry): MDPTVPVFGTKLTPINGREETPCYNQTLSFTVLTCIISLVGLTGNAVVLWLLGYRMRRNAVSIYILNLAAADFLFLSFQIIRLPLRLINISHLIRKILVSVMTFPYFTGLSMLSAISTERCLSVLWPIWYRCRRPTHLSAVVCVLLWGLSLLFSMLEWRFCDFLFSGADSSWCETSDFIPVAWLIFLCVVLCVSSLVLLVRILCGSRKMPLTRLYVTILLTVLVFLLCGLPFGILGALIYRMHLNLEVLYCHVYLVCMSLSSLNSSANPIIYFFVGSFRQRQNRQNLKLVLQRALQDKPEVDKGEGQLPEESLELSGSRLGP

Row | inhibition at 0.5 µM | IC50 | inhibition at 2 µM | Structure (SMILES)
1 | 20% |  |  | O=C(O)c1cccc2c1ccn2Cc1ccc(OC(F)(F)F)cc1 [Compound 7]
2 | 64% | < 500 nM |  | O=C(O)c1cccc2c1ccn2Cc1ccc(OC(F)(F)F)c(Cl)c1 [Compound 8]
3 | 90% | < 500 nM |  | O=C(O)c1cccc2c1ccn2Cc1ccc(Cl)c(C(F)(F)F)c1 [Compound 10]
4 |  | 500 to 5000 nM | 97% | Cc1cn(Cc2ccc(C(F)(F)F)cc2Cl)c2cccc(C(=O)O)c12 [Compound 20]
5 |  |  | 2.4% | O=C(O)c1cccc2c1ccn2Cc1c(Cl)cccc1C(F)(F)F [Compound 22]
6 |  |  | 29% | O=C(O)c1cccc2c1ccn2Cc1cc(Cl)cc(C(F)(F)F)c1 [Compound 23]
7 | 20% |  |  | O=C(O)c1cccc2c1ccn2Cc1cccc(C(F)(F)F)c1F [Compound 24]
8 |  |  | 49% | O=C(O)c1cccc2c1ncn2Cc1ccc(C(F)(F)F)cc1Cl [Compound 26]
9 | 86% | < 500 nM |  | O=C(O)c1cc(F)cc2c1ccn2Cc1cccc(C(F)(F)F)c1Cl [Compound 28]
10 | 76% | < 500 nM |  | O=C(O)c1cc(Cl)cc2c1ccn2Cc1cccc(C(F)(F)F)c1Cl [Compound 29]
11 |  |  | -6.2% | O=C(O)c1cccc2c1ccn2Cc1c(Cl)cc(C(F)(F)F)cc1Cl [Compound 31]
12 |  |  | -13% | O=C(O)c1cccc2c1ccn2Cc1c(Cl)cccc1Cl [Compound 32]
13 |  |  | 5.5% | O=C(O)c1cccc2c1ccn2CCc1cc(C(F)(F)F)ccc1Cl [Compound 37]
14 | 44% |  |  | O=C(O)c1cc(C2CC2)cc2c1ccn2Cc1cccc(C(F)(F)F)c1Cl [Compound 38]
15 |  |  | 81% | FC(F)(F)c1ccc(Cn2ccc3c(-c4nnn[nH]4)cccc32)cc1 [Compound 41]
16 |  | < 500 nM | 96% | Fc1cc(C(F)(F)F)ccc1Cn1ccc2c(-c3nnn[nH]3)cccc21 [Compound 43]
17 |  | 500 to 5000 nM | 65% | FC(F)(F)c1cccc(Cn2ccc3c(-c4nnn[nH]4)cccc32)c1Cl [Compound 44]
18 | -11.2% |  |  | Fc1cc(-c2nnn[nH]2)c2ccn(Cc3cccc(C(F)(F)F)c3Cl)c2c1 [Compound 50]
19 | -7.6% |  |  | NC(=O)c1cccc2c1ccn2Cc1cccc(C(F)(F)F)c1Cl [Compound 53]

Second part, the molecule before the results:

Row | Structure (SMILES) | inhibition at 0.5 µM | IC50 | inhibition at 2 µM
20 | O=C(O)c1c(F)ccc2c1ccn2Cc1ccc(C(F)(F)F)c(Cl)c1 [Compound 1] | 78% | < 500 nM | 
21 | O=C(O)c1c(F)ccc2c1ccn2Cc1cccc(C(F)(F)F)c1Cl [Compound 2] | 98% | < 500 nM | 
22 | O=C(O)c1cccc2c1ccn2Cc1ccc(C(F)(F)F)cc1 [Compound 3] |  | 500 to 5000 nM | 34%
23 | O=C(O)c1cccc2c1ccn2Cc1ccc(C(F)(F)F)cc1Cl [Compound 4] |  | < 500 nM | 91%
24 | O=C(O)c1cccc2c1CCN2Cc1ccc(C(F)(F)F)cc1 [Compound 5] |  | > 5000 nM | 40%
25 | O=C(O)c1cccc2c1CCN2Cc1ccc(C(F)(F)F)cc1Cl [Compound 6] |  |  | 18%
26 | O=C(O)c1cccc2c1ccn2Cc1cccc(C(F)(F)F)c1 [Compound 9] | -1.6% |  | 
27 | O=C(O)c1cccc2c1ccn2Cc1ccccc1C(F)(F)F [Compound 11] | -1.2% |  | 
28 | O=C(O)c1cccc2c1ccn2Cc1cccc(C(F)(F)F)c1Cl [Compound 12] |  | < 500 nM | 101%
29 | O=C(O)c1ncnc2c1ccn2Cc1cccc(C(F)(F)F)c1Cl [Compound 13] | 27% |  | 
30 | O=C(O)c1ncnc2c1ccn2Cc1ccc(C(F)(F)F)c(Cl)c1 [Compound 14] | 12% |  | 
31 | CC(c1ccc(C(F)(F)F)cc1)n1ccc2c(C(=O)O)cccc21 (centres unmarked) [Compound 15] | 5.3% |  | 
32 | O=C(O)c1cccc2c1ccn2Cc1ccc(C(F)(F)F)cc1F [Compound 16] |  | < 500 nM | 94%
33 | Cc1cn(Cc2cc(C(F)(F)F)ccc2Cl)c2cccc(C(=O)O)c12 [Compound 17] |  |  | 3.6%
34 | Cc1cc2c(C(=O)O)cccc2n1Cc1cc(C(F)(F)F)ccc1Cl [Compound 18] |  |  | 7.2%
35 | O=C(O)c1cccc2c1ccn2Cc1ccc(C(F)(F)F)c(Cl)c1 [Compound 19, 1-(3-chloro-4-(trifluoromethyl)benzyl)-1H-indole-4-carboxylic acid] |  | < 500 nM | 99.7%
36 | Cc1cc2c(C(=O)O)cccc2n1Cc1ccc(C(F)(F)F)cc1Cl [Compound 21] |  |  | 52%

Row | Structure (SMILES) | inhibition at 0.5 µM | IC50 | inhibition at 2 µM
37 | O=C(O)c1cccc2c1ccn2CCc1ccc(C(F)(F)F)cc1Cl [Compound 25] |  | > 5000 nM | 
38 | O=C(O)c1cccc2c1cnn2Cc1ccc(C(F)(F)F)cc1Cl [Compound 27] |  |  | 72%
39 | O=C(O)c1cc(Br)cc2c1ccn2Cc1cccc(C(F)(F)F)c1Cl [Compound 30] | 97% | < 500 nM | 
40 | O=C(O)c1cccc2c1ccn2Cc1ccc(C(F)(F)F)cc1Br [Compound 33] |  | 500 to 5000 nM | 98%
41 | O=C(O)c1cccc2c1cnn2Cc1cc(C(F)(F)F)ccc1Cl [Compound 34] |  |  | -2.4%
42 | O=C(O)c1cccc2c1ccn2Cc1cc(C(F)(F)F)ccc1Cl [Compound 35] |  |  | 5.1%
43 | O=C(O)c1cccc2c1ccn2Cc1ccccc1Cl [Compound 36] |  |  | 0.4%
44 | O=C(O)c1cc(-c2ccccc2)cc2c1ccn2Cc1cccc(C(F)(F)F)c1Cl [Compound 39] | 1.6% |  | 
45 | O=C(O)c1ccc(Cl)c2c1ccn2Cc1cccc(C(F)(F)F)c1Cl [Compound 40] | 4.9% |  | 
46 | FC(F)(F)c1ccc(Cn2ccc3c(-c4nnn[nH]4)cccc32)c(Cl)c1 [Compound 42] |  | < 500 nM | 100%
47 | FC(F)(F)c1ccc(Cn2ccc3c(-c4nnn[nH]4)cccc32)c(Br)c1 [Compound 45] |  | < 500 nM | 100%
48 | FC(F)(F)c1ccc(Cn2ccc3c(-c4nnn[nH]4)cccc32)cc1Cl [Compound 46] |  | < 500 nM | 99.9%
49 | FC(F)(F)c1cccc(Cn2ccc3c(-c4nnn[nH]4)ncnc32)c1Cl [Compound 47] | 13% |  | 
50 | FC(F)(F)c1ccc(Cn2ccc3c(-c4nnn[nH]4)ncnc32)cc1Cl [Compound 48] | 4.3% |  | 
51 | Fc1ccc2c(ccn2Cc2ccc(C(F)(F)F)c(Cl)c2)c1-c1nnn[nH]1 [Compound 51] | 99.9% | < 500 nM | 
52 | NC(=O)c1cccc2c1ccn2Cc1ccc(C(F)(F)F)c(Cl)c1 [Compound 54] | 11% |  | 
53 | NC(=O)c1c(F)ccc2c1ccn2Cc1cccc(C(F)(F)F)c1Cl [Compound 55] | 36% |  | 
